Assay results reported in the PolyMetriX glass transition set.
± gives the standard deviation of the reports.

For `*CC(C)/C=C(/*)C` (repeat unit), the glass transition temperature was 2.30 °C.
With `*Oc1cc(Oc2ccc(C(C)(C)c3ccc(*)cc3)cc2)cc([N+](=O)[O-])c1` (repeat unit) the glass transition temperature was 150.00 °C.
`*Oc1ccc(C2(c3ccc(OC(=O)c4cccc(C(*)=O)c4)cc3)c3ccccc3-c3ccccc32)cc1` (repeat unit) showed a glass transition temperature of 269.50 °C.
Compound `*CC(*)(C)C(=O)OCCCCCCCCOc1ccc2cc(C(=O)Oc3ccccc3)ccc2c1` (repeat unit) has a glass transition temperature of 34.00 °C.
In the case of `*CCC(c1ccccc1)C(*)c1ccccc1` (repeat unit), the glass transition temperature is reported as 104.30 °C.
`*CCOCCOCCOc1ccc(NC(=O)c2cccc(C(=O)Nc3ccc(O*)cc3)c2)cc1` (repeat unit) showed a glass transition temperature of 129.00 °C.
For `*CC(*)(C)C(=O)OC1CCCC(C)C1` (repeat unit), the glass transition temperature was 89.00 °C.
Work on `*c1ccc(Oc2ccc(C(c3ccc(Oc4ccc(N5C(=O)c6ccc(-c7ccc8c(c7)C(=O)N(*)C8=O)cc6C5=O)cc4)cc3)(C(F)(F)F)C(F)(F)F)cc2)cc1` (repeat unit) yielded a glass transition temperature of 249.50 ± 18 °C.
For `*CCOCCOC(=O)/C=C/C(=O)NCCCCCCNC(=O)/C=C/C(=O)O*` (repeat unit), the glass transition temperature was 76.00 °C.
Compound `*CC(O)COc1ccc(O*)cc1` (repeat unit) has a glass transition temperature of 60.00 °C.
In the case of `*CCCCCCCCCCCCC(=O)N*` (repeat unit), the glass transition temperature is reported as 41.00 °C.
With `*Cc1ccc2nc(-c3cc(-c4nc5ccc(*)cc5c(=O)o4)cc(N4C(=O)c5ccccc5C4=O)c3)oc(=O)c2c1` (repeat unit) the glass transition temperature was 322.00 °C.
Compound `*c1ccc(-c2nc3cc(-c4ccc5nc(*)c(-c6ccccc6)nc5c4)ccc3nc2-c2ccccc2)cc1` (repeat unit) has a glass transition temperature of 391.50 °C.
Compound `*C(=O)Nc1ccc(Oc2ccccc2-c2ccccc2Oc2ccc(NC(=O)c3ccc4c(c3)C(=O)N(c3ccc(C)c(N5C(=O)c6ccc(*)cc6C5=O)c3)C4=O)cc2)cc1` (repeat unit) has a glass transition temperature of 266.00 °C.
`*C[Si](*)(CCCC)CCCC` (repeat unit) gave a glass transition temperature of -30.00 °C.
For `*=Nc1ccc(Cc2ccc(NC(=*)c3ccccc3)cc2)cc1` (repeat unit), the glass transition temperature was 158.00 °C.
With `*CC(*)(C)C(=O)OCCN(CC)c1ccc(/N=N/c2ccc(OC)cc2)c(C)c1` (repeat unit) the glass transition temperature was 95.00 °C.
For `*Oc1ccc(S(=O)(=O)c2ccc(Oc3ccc(C(C)(C)c4ccc(*)cc4)cc3)c(S(=O)(=O)O)c2)cc1S(=O)(=O)O` (repeat unit), the glass transition temperature was 188.00 °C.
`*OC(c1ccco1)C(OC(=O)Nc1ccc(Cc2ccc(NC(*)=O)cc2)cc1)c1ccco1` (repeat unit) gave a glass transition temperature of 74.00 °C.
In the case of `*CCCCCCN(CC(F)(F)C(F)(F)C(F)(F)C(F)(F)C(F)(F)C(F)(F)C(F)(F)F)C(=O)C(F)(F)C(F)(F)C(F)(F)C(=O)N(*)CC(F)(F)C(F)(F)C(F)(F)C(F)(F)C(F)(F)C(F)(F)C(F)(F)F` (repeat unit), the glass transition temperature is reported as 187.50 °C.
`*CC(*)C(=O)c1ccc(C(C)(C)C)cc1` (repeat unit) gave a glass transition temperature of 103.50 °C.
With `*/C=C/c1ccc(*)c(OCc2cc(OCCC(C)CCCC(C)C)cc(OCC(CC)CCCC)c2)c1` (repeat unit) the glass transition temperature was 227.00 °C.
With `*Oc1ccc(CC(NC(=O)CCc2ccc(OC(=O)CCCCC(*)=O)cc2)C(=O)OC(C)C)cc1` (repeat unit) the glass transition temperature was 56.50 °C.
With `*CC(=O)Nc1ccc(Cc2ccc(NC(=O)COc3ccc4ccccc4c3Sc3c(O*)ccc4ccccc34)cc2)cc1` (repeat unit) the glass transition temperature was 241.00 °C.
`*Cc1ccc(CNC(=O)CCCCCCCCCCCCCCCCC(=O)N*)cc1` (repeat unit) gave a glass transition temperature of 75.00 °C.
Compound `*c1ccc(Oc2ccc(C(C)(C)c3ccc(Oc4ccc(-c5nnc(*)n5-c5cccc(C(F)(F)F)c5)cc4)cc3)cc2)cc1` (repeat unit) has a glass transition temperature of 190.00 °C.
`*CCCCCCC(=O)Oc1ccc(OC(=O)c2ccc3c(c2)C(=O)N(*)C3=O)cc1` (repeat unit) showed a glass transition temperature of 74.31 °C.
With `*Oc1ccc(Oc2ccc(C(=O)c3ccc(*)cc3)cc2)cc1-c1cc(C)cc(C)c1` (repeat unit) the glass transition temperature was 162.00 °C.
Compound `*OC(=O)OCC(OC)C(COC(=O)OC1COC2C(*)COC12)OC` (repeat unit) has a glass transition temperature of 61.00 °C.
For `*CC(*)c1cc(OC)c(OC(C)=O)c(OC)c1` (repeat unit), the glass transition temperature was 147.00 °C.
With `*Oc1ccc(OC(=O)c2ccc(C(*)=O)cc2Oc2ccc(F)cc2)cc1` (repeat unit) the glass transition temperature was 106.00 °C.
`*c1ccc(-c2ccc(N(*)c3ccc(C(F)(F)F)cc3)cc2)cc1` (repeat unit) showed a glass transition temperature of 225.00 °C.
Work on `*CC(*)C(=O)OCCOCC1(CC)COC1` (repeat unit) yielded a glass transition temperature of -16.00 °C.
In the case of `*Oc1ccc(OC(=O)c2cc(OCCCCCCCCOCC3CCCN3c3ccc([N+](=O)[O-])cc3)c(C(*)=O)cc2OCCCCCCCCOCC2CCCN2c2ccc([N+](=O)[O-])cc2)cc1` (repeat unit), the glass transition temperature is reported as 41.00 °C.
Work on `*CC(*)c1cccc(C)n1` (repeat unit) yielded a glass transition temperature of 92.00 °C.
`*Oc1c(-c2ccccc2)cc(*)cc1-c1ccccc1-c1ccccc1` (repeat unit) gave a glass transition temperature of 211.00 °C.
`*c1cc(C(c2ccc(OCCN(c3ccccc3)c3ccc(/C=C/C4=CC(=C(C#N)C#N)CC(C)(C)C4)cc3)c(N3C(=O)c4ccc(Oc5ccc6c(c5)C(=O)N(*)C6=O)cc4C3=O)c2)(C(F)(F)F)C(F)(F)F)ccc1OCCN(c1ccccc1)c1ccc(/C=C/C2=CC(=C(C#N)C#N)CC(C)(C)C2)cc1` (repeat unit) gave a glass transition temperature of 220.00 °C.
`*CCCCCCCCCCOC(=O)O*` (repeat unit) showed a glass transition temperature of -37.00 °C.
Work on `*CCCP(CCCNC(=O)CCCCC(=O)N*)CC(C)C` (repeat unit) yielded a glass transition temperature of 71.00 °C.
With `*CCCCCCc1nc2cc(NC(=O)CCCCCCC(=O)Nc3ccc4oc(*)nc4c3)ccc2o1` (repeat unit) the glass transition temperature was 77.00 °C.
Compound `*Nc1ccc(/C=C/c2ccc(NC(=C(C#N)C#N)c3ccc(C(*)=C(C#N)C#N)cc3)cc2)cc1` (repeat unit) has a glass transition temperature of 250.00 °C.
With `*/C(=C(/c1ccc(*)cc1)c1ccc(Oc2ccccc2)cc1)c1ccc(Oc2ccccc2)cc1` (repeat unit) the glass transition temperature was 163.00 °C.
`*CCSSCCO*` (repeat unit) gave a glass transition temperature of -53.00 °C.
With `*OC(C)COC(=O)/C=C/C(*)=O` (repeat unit) the glass transition temperature was -14.00 °C.
In the case of `*c1ccc2c(c1)C(CCCCCC)(CCCCCC)c1cc(-c3ccc4c(c3)c3cc(*)ccc3n4-c3ccc(C)cc3)ccc1-2` (repeat unit), the glass transition temperature is reported as 155.00 °C.
In the case of `*c1ccc(Cc2ccc(N3C(=O)c4ccc(Oc5ccc(Oc6ccc7c(c6)C(=O)N(*)C7=O)cc5)cc4C3=O)cc2)cc1` (repeat unit), the glass transition temperature is reported as 259.00 °C.
`*CC[Si](C)(C)O[Si]1(*)O[Si](C)(C)O[Si](C)(C)O1` (repeat unit) showed a glass transition temperature of -64.00 °C.
Work on `*Oc1ccc(Cc2ccc(OC(=O)c3cccc(C(*)=O)c3)cc2)cc1` (repeat unit) yielded a glass transition temperature of 150.00 °C.
In the case of `*Oc1ccc(NC(=O)c2cc(C(=O)Nc3ccc(*)cc3)c(C(=O)O)cc2C(=O)O)cc1` (repeat unit), the glass transition temperature is reported as 207.40 °C.
`*c1ccc(S(=O)(=O)c2ccc(N3C(=O)c4ccc(-c5ccc6c(c5)C(=O)N(*)C6=O)cc4C3=O)cc2)cc1` (repeat unit) gave a glass transition temperature of 340.00 ± 14 °C.
Compound `*CC(*)C(=O)Oc1ccc(C(=O)OCCCC)cc1` (repeat unit) has a glass transition temperature of 13.00 °C.
Compound `*Oc1ccc(C(c2ccc(OC(*)=S)cc2)C(CC)CC)cc1` (repeat unit) has a glass transition temperature of 148.00 °C.
Compound `*c1ccc(Oc2ccc(Oc3ccc(N4C(=O)c5ccc(Oc6ccc7c(c6)C(=O)N(*)C7=O)cc5C4=O)cc3C(F)(F)F)cc2)cc1` (repeat unit) has a glass transition temperature of 232.30 °C.
In the case of `*CCOC(=O)c1ccc(-c2ccc(C(=O)O*)cc2)cc1` (repeat unit), the glass transition temperature is reported as 40.00 °C.
`*CCOCCOC(=O)c1cccc(C(=O)O*)c1` (repeat unit) gave a glass transition temperature of 16.00 °C.
For `*Oc1ccc2cc(OC(=O)c3cccc(Oc4ccc(Oc5cccc(C(*)=O)c5)cc4)c3)ccc2c1` (repeat unit), the glass transition temperature was 125.00 °C.
Compound `*CC(O)COc1ccc(C(C)(C)C2CCC(C)(c3ccc(O*)cc3)CC2)cc1` (repeat unit) has a glass transition temperature of 135.00 °C.
Compound `*c1ccc(-c2ccc(-c3c(-c4ccccc4)nc4ccc(Oc5ccc6nc(-c7ccccc7)c(*)c(-c7ccccc7)c6c5)cc4c3-c3ccccc3)cc2)cc1` (repeat unit) has a glass transition temperature of 330.00 °C.
In the case of `*/C=C/c1ccc(*)cc1` (repeat unit) [Poly(p-phenylenevinylene)s], the glass transition temperature is reported as 137.42 ± 150 °C.
Compound `*c1cccc(P(=O)(c2ccc(C(F)(F)F)cc2)c2cccc(-n3c(=O)c4c(-c5cc(C(F)(F)F)cc(C(F)(F)F)c5)c5c(=O)n(*)c(=O)c5c(-c5cc(C(F)(F)F)cc(C(F)(F)F)c5)c4c3=O)c2)c1` (repeat unit) has a glass transition temperature of 311.00 °C.
In the case of `*Oc1ccc(C(C)(C)c2ccc(Oc3ccc(C(=O)Nc4ccc(-c5ccc(NC(=O)c6ccc(*)cc6)cc5C(F)(F)F)c(C(F)(F)F)c4)cc3)cc2)cc1` (repeat unit), the glass transition temperature is reported as 250.00 °C.
Work on `*CC(*)c1ccc(CCCC)cc1` (repeat unit) [Poly(p-n-butyl styrene) ] yielded a glass transition temperature of 6 ± 0.6 °C.
For `*CC(*)OC(=O)c1ccc(OC)cc1` (repeat unit), the glass transition temperature was 86.50 °C.
`*CC(*)c1cc(C(=O)OCCCCCCCCCCCC)ccc1-c1ccc(OCCCCCCCC)cc1` (repeat unit) showed a glass transition temperature of 42.00 °C.
`*CCC(C)S*` (repeat unit) gave a glass transition temperature of -59.00 °C.
With `*Oc1ccc(/N=C(\C)c2ccc(Oc3ccc(C(C)(C)c4ccc(Oc5ccc(/C(C)=N/c6ccc(*)cc6)cc5)cc4)cc3)cc2)cc1` (repeat unit) the glass transition temperature was 141.00 °C.
Work on `*c1ccc(Oc2ccc(P(C)(=O)c3ccc(Oc4ccc(C5(*)OC(=O)c6ccccc65)cc4)cc3)cc2)cc1` (repeat unit) yielded a glass transition temperature of 263.00 °C.
`*CC(*)(C)C(=O)OCCCCCC(=O)Oc1ccc(OC(=O)c2ccc(OCCCCC)cc2)cc1` (repeat unit) showed a glass transition temperature of 50.00 °C.
In the case of `*Oc1ccc(C(c2ccc(Oc3ccc(C(=O)Nc4ccc(-c5ccc(NC(=O)c6ccc(*)cc6)cc5C(F)(F)F)c(C(F)(F)F)c4)cc3)cc2)(C(F)(F)F)C(F)(F)F)cc1` (repeat unit), the glass transition temperature is reported as 240.00 °C.
